Here are results for 20 compounds from PubChem BioAssay (NCI).

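A five-concentration, 48-hour dose response in 96-well plates underlies each endpoint, interpolated linearly between surrounding concentrations. GI50: concentration for 50% inhibition of growth. At the TGI there is no net growth.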

For one experiment, the system named is LOX IMVI melanoma. As to the kind of experiment: DTP human tumour cell line panel, 48 h.
For `O=C1c2ccccc2C2(O)c3cc4ccccc4cc3OC12O` (configuration not stated), the TGI (in general, the concentration giving total growth inhibition) was greater than 100 µM.
Still for that read-out and setting: then `CN(C)c1c([O-])c(=[N+](C)C)c1=O`, with greater than 100 µM.

A further experiment has as its system M14 melanoma. The experiment in a line: DTP human tumour cell line panel, 48 h.
On to `COC(=O)[C@]1(C)CCCC2(C)C1CC[C@H]1C=C(C)[C@H]3CCC12C3` (some centres not stated), for which the concentration for total growth inhibition (TGI) was greater than 100 µM.
For `O=c1[nH]c(=O)n(C2CC(O)C(CO)O2)cc1CO` (configuration not stated), the GI50 (as a rule, the concentration at which growth is held to half of that of the control) is greater than 100 µM and the concentration for total growth inhibition (TGI) was greater than 100 µM.
As for `Cc1c(Cl)cccc1N1C(=O)C(Cl)=C(Cl)C1=O`, the TGI was greater than 100 µM.
With `COc1ccc(NC(=O)/C(N=O)=C(/C)O)cc1`, the TGI is greater than 100 µM.
As for `COc1cccc(/C=N/[N-]C(=O)c2ccncc2)c1[O-].[Cu+2].[OH3+]`, the GI50 is 61.3 µM and the concentration for total growth inhibition (TGI) is greater than 100 µM.
With `CC(=O)OC12c3ccccc3-c3ccccc3C1C1C(=O)N(C)C(=O)C12Cl` (configuration not stated), the TGI is greater than 10 µM.
In turn, `COc1ccc(C(O)c2nccn2C)c(OC)c1` (configuration not stated) registered a TGI greater than 100 µM.
The compound `O=c1c2ccccc2sc2cccc(NCCCN3CCN(CCCNc4cccc5sc6ccccc6c(=O)c45)CC3)c12` yielded a TGI greater than 100 µM.
On the same count and under the same terms, then `O=[N+]([O-])c1ccc(-n2nnc(C3=NCCN3)c2-c2ccc(Cl)cc2)cc1`, with greater than 100 µM; and `CCSc1[nH]c(Nc2nc(-c3ccccc3)n(-c3ccccc3)n2)c(C(N)=O)c1C(N)=O`, with greater than 10 µM.
Same read-out and setting: in the case of `CCOC(=O)C1(c2ccccc2)CCC(=O)CC1` it was greater than 100 µM.
The same measure, in the same setting: in the case of `CC(=O)O[C@H]1CCC2[C@@H]3CCC4=C(O)c5nocc5C[C@]4(C)C3CC[C@@]21C` (some centres not stated) it was greater than 100 µM.
For `CCCCCCC[CH2][Sn]1([CH2]CCCCCCC)[O]C(=O)c2cccnc2[S]1`, the GI50 is greater than 100 µM and the total growth inhibition concentration (TGI) was greater than 100 µM.
`Cc1ccc(S(=O)(=O)N/N=C/c2oc(-c3ccncc3)c(-c3ccncc3)c2[N+](=O)[O-])cc1` came in with a concentration for total growth inhibition (TGI) greater than 100 µM.
Turning to `COc1ccccc1N1CCN(CCCn2c(=O)c3c(OC)nc(C)cc3c(=O)n2-c2ccccc2)CC1`, the GI50 is greater than 100 µM and the TGI is greater than 100 µM.
With `CCc1cccc(C)c1NC(=O)C(=O)Cc1nc2ccccc2o1`, the TGI was greater than 100 µM.
Compound `O=C(O)[C@H](NS(=O)(=O)c1ccc2ccccc2c1)c1ccccc1` had a concentration for total growth inhibition (TGI) greater than 100 µM.
`O=C1c2ccccc2C2(O)c3cc4ccccc4cc3OC12O` (configuration not stated) had a TGI greater than 100 µM.
For the compound `CN(C)c1c([O-])c(=[N+](C)C)c1=O`, the TGI was greater than 100 µM.

Another experiment concerns SK-MEL-28 melanoma. The experiment in a line: DTP human tumour cell line panel, 48 h.
Regarding `COC(=O)[C@]1(C)CCCC2(C)C1CC[C@H]1C=C(C)[C@H]3CCC12C3` (some centres not stated), the TGI was greater than 100 µM.
`O=c1[nH]c(=O)n(C2CC(O)C(CO)O2)cc1CO` (configuration not stated): the GI50 is greater than 100 µM and the TGI is greater than 100 µM.
In turn, `Cc1c(Cl)cccc1N1C(=O)C(Cl)=C(Cl)C1=O` came in with a concentration for total growth inhibition (TGI) greater than 100 µM.
Still for that read-out and setting: then `COc1ccc(NC(=O)/C(N=O)=C(/C)O)cc1`, with greater than 100 µM.
Consider `COc1cccc(/C=N/[N-]C(=O)c2ccncc2)c1[O-].[Cu+2].[OH3+]`, for which the GI50 was greater than 100 µM and the TGI was greater than 100 µM.
The compound `CC(=O)OC12c3ccccc3-c3ccccc3C1C1C(=O)N(C)C(=O)C12Cl` (configuration not stated) returned a TGI greater than 10 µM.
The same measure, in the same setting: in the case of `COc1ccc(C(O)c2nccn2C)c(OC)c1` (configuration not stated) it was greater than 100 µM.
On to `O=c1c2ccccc2sc2cccc(NCCCN3CCN(CCCNc4cccc5sc6ccccc6c(=O)c45)CC3)c12`, for which the TGI is greater than 100 µM.
In turn, `O=[N+]([O-])c1ccc(-n2nnc(C3=NCCN3)c2-c2ccc(Cl)cc2)cc1` showed a concentration for total growth inhibition (TGI) greater than 100 µM.
Compound `CCSc1[nH]c(Nc2nc(-c3ccccc3)n(-c3ccccc3)n2)c(C(N)=O)c1C(N)=O` came in with a TGI greater than 10 µM.
With `CCOC(=O)C1(c2ccccc2)CCC(=O)CC1`, the TGI was greater than 100 µM.
Take `Cc1ccc(/C=C/c2c(C(=O)/C=C/c3ccc(C(F)(F)F)cc3)c(C)nc3ccccc23)cc1`: the GI50 was 1.93 µM and the TGI was determined as 3.63 µM.
Compound `CC(=O)O[C@H]1CCC2[C@@H]3CCC4=C(O)c5nocc5C[C@]4(C)C3CC[C@@]21C` (some centres not stated) had a total growth inhibition concentration (TGI) greater than 100 µM.
Take `CCCCCCC[CH2][Sn]1([CH2]CCCCCCC)[O]C(=O)c2cccnc2[S]1`: the GI50 is greater than 100 µM and the concentration for total growth inhibition (TGI) is greater than 100 µM.
On to `Cc1ccc(S(=O)(=O)N/N=C/c2oc(-c3ccncc3)c(-c3ccncc3)c2[N+](=O)[O-])cc1`, for which the TGI was greater than 100 µM.
On to `COc1ccccc1N1CCN(CCCn2c(=O)c3c(OC)nc(C)cc3c(=O)n2-c2ccccc2)CC1`, for which the GI50 was greater than 100 µM and the TGI is greater than 100 µM.
For the compound `CCc1cccc(C)c1NC(=O)C(=O)Cc1nc2ccccc2o1`, the concentration for total growth inhibition (TGI) is greater than 100 µM.
On the same count and under the same terms, in the case of `O=C(O)[C@H](NS(=O)(=O)c1ccc2ccccc2c1)c1ccccc1` it was greater than 100 µM.
As to `O=C1c2ccccc2C2(O)c3cc4ccccc4cc3OC12O` (configuration not stated), the TGI is greater than 100 µM.
As to `CN(C)c1c([O-])c(=[N+](C)C)c1=O`, the TGI was greater than 100 µM.

The subject of another experiment is T-47D breast. As to the kind of experiment: DTP human tumour cell line panel, 48 h.
Compound `CC(=O)OC12c3ccccc3-c3ccccc3C1C1C(=O)N(C)C(=O)C12Cl` (configuration not stated) showed a TGI greater than 10 µM.
Consider `O=c1c2ccccc2sc2cccc(NCCCN3CCN(CCCNc4cccc5sc6ccccc6c(=O)c45)CC3)c12`, for which the TGI was greater than 100 µM.
The same measure, in the same setting: in the case of `CCSc1[nH]c(Nc2nc(-c3ccccc3)n(-c3ccccc3)n2)c(C(N)=O)c1C(N)=O` it was greater than 10 µM.
With `COc1ccccc1N1CCN(CCCn2c(=O)c3c(OC)nc(C)cc3c(=O)n2-c2ccccc2)CC1`, the GI50 was greater than 100 µM and the TGI is greater than 100 µM.

The test system of the next experiment is UACC-257 melanoma. The experiment in a line: DTP human tumour cell line panel, 48 h.
Take `COC(=O)[C@]1(C)CCCC2(C)C1CC[C@H]1C=C(C)[C@H]3CCC12C3` (some centres not stated): the TGI is greater than 100 µM.
With `O=c1[nH]c(=O)n(C2CC(O)C(CO)O2)cc1CO` (configuration not stated), the GI50 was greater than 100 µM and the concentration for total growth inhibition (TGI) was greater than 100 µM.
Regarding `Cc1c(Cl)cccc1N1C(=O)C(Cl)=C(Cl)C1=O`, the total growth inhibition concentration (TGI) was greater than 100 µM.
On the same count and under the same terms, in the case of `COc1ccc(NC(=O)/C(N=O)=C(/C)O)cc1` it was greater than 100 µM.
With `COc1cccc(/C=N/[N-]C(=O)c2ccncc2)c1[O-].[Cu+2].[OH3+]`, the GI50 was greater than 100 µM and the TGI was greater than 100 µM.
Turning to `CC(=O)OC12c3ccccc3-c3ccccc3C1C1C(=O)N(C)C(=O)C12Cl` (configuration not stated), the concentration for total growth inhibition (TGI) is greater than 10 µM.
Still for that read-out and setting: then `COc1ccc(C(O)c2nccn2C)c(OC)c1` (configuration not stated), with greater than 100 µM; and `O=c1c2ccccc2sc2cccc(NCCCN3CCN(CCCNc4cccc5sc6ccccc6c(=O)c45)CC3)c12`, with greater than 100 µM.
The same measure, in the same setting: then `O=[N+]([O-])c1ccc(-n2nnc(C3=NCCN3)c2-c2ccc(Cl)cc2)cc1`, with greater than 100 µM.
The same measure, in the same setting: then `CCSc1[nH]c(Nc2nc(-c3ccccc3)n(-c3ccccc3)n2)c(C(N)=O)c1C(N)=O`, with greater than 10 µM; and `CCOC(=O)C1(c2ccccc2)CCC(=O)CC1`, with greater than 100 µM.
Turning to `Cc1ccc(/C=C/c2c(C(=O)/C=C/c3ccc(C(F)(F)F)cc3)c(C)nc3ccccc23)cc1`, the GI50 is 2.15 µM and the concentration for total growth inhibition (TGI) amounted to 4.95 µM.
For `CC(=O)O[C@H]1CCC2[C@@H]3CCC4=C(O)c5nocc5C[C@]4(C)C3CC[C@@]21C` (some centres not stated), the TGI is greater than 100 µM.
On to `CCCCCCC[CH2][Sn]1([CH2]CCCCCCC)[O]C(=O)c2cccnc2[S]1`, for which the GI50 is greater than 100 µM and the TGI is greater than 100 µM.
For `Cc1ccc(S(=O)(=O)N/N=C/c2oc(-c3ccncc3)c(-c3ccncc3)c2[N+](=O)[O-])cc1`, the TGI was greater than 100 µM.
`CCc1cccc(C)c1NC(=O)C(=O)Cc1nc2ccccc2o1` displayed a TGI greater than 100 µM.
`O=C(O)[C@H](NS(=O)(=O)c1ccc2ccccc2c1)c1ccccc1` had a concentration for total growth inhibition (TGI) greater than 100 µM.
With `O=C1c2ccccc2C2(O)c3cc4ccccc4cc3OC12O` (configuration not stated), the TGI was determined as 89.3 µM.
Regarding `CN(C)c1c([O-])c(=[N+](C)C)c1=O`, the TGI is greater than 100 µM.

The subject of a further experiment is UACC-62 melanoma. The experiment in a line: DTP human tumour cell line panel, 48 h.
Compound `COC(=O)[C@]1(C)CCCC2(C)C1CC[C@H]1C=C(C)[C@H]3CCC12C3` (some centres not stated) gave a concentration for total growth inhibition (TGI) greater than 100 µM.
Take `O=c1[nH]c(=O)n(C2CC(O)C(CO)O2)cc1CO` (configuration not stated): the GI50 is greater than 100 µM and the concentration for total growth inhibition (TGI) was greater than 100 µM.
`Cc1c(Cl)cccc1N1C(=O)C(Cl)=C(Cl)C1=O` showed a TGI greater than 100 µM.
In turn, `COc1ccc(NC(=O)/C(N=O)=C(/C)O)cc1` yielded a TGI greater than 100 µM.
Consider `COc1cccc(/C=N/[N-]C(=O)c2ccncc2)c1[O-].[Cu+2].[OH3+]`, for which the GI50 was 28.9 µM and the TGI is greater than 100 µM.
`COc1ccc(C(O)c2nccn2C)c(OC)c1` (configuration not stated): the TGI is greater than 100 µM.
Still for that read-out and setting: then `O=c1c2ccccc2sc2cccc(NCCCN3CCN(CCCNc4cccc5sc6ccccc6c(=O)c45)CC3)c12`, with greater than 100 µM; and `O=[N+]([O-])c1ccc(-n2nnc(C3=NCCN3)c2-c2ccc(Cl)cc2)cc1`, with greater than 100 µM; and `CCSc1[nH]c(Nc2nc(-c3ccccc3)n(-c3ccccc3)n2)c(C(N)=O)c1C(N)=O`, with greater than 10 µM.
The same measure, in the same setting: in the case of `CCOC(=O)C1(c2ccccc2)CCC(=O)CC1` it was greater than 100 µM.
Turning to `Cc1ccc(/C=C/c2c(C(=O)/C=C/c3ccc(C(F)(F)F)cc3)c(C)nc3ccccc23)cc1`, the GI50 was 1.55 µM and the total growth inhibition concentration (TGI) was 3.02 µM.
Turning to `CC(=O)O[C@H]1CCC2[C@@H]3CCC4=C(O)c5nocc5C[C@]4(C)C3CC[C@@]21C` (some centres not stated), the TGI was greater than 100 µM.
For the compound `CCCCCCC[CH2][Sn]1([CH2]CCCCCCC)[O]C(=O)c2cccnc2[S]1`, the GI50 was greater than 100 µM and the TGI is greater than 100 µM.
As to `Cc1ccc(S(=O)(=O)N/N=C/c2oc(-c3ccncc3)c(-c3ccncc3)c2[N+](=O)[O-])cc1`, the total growth inhibition concentration (TGI) is greater than 100 µM.
As to `COc1ccccc1N1CCN(CCCn2c(=O)c3c(OC)nc(C)cc3c(=O)n2-c2ccccc2)CC1`, the GI50 is greater than 100 µM and the TGI is greater than 100 µM.
Take `CCc1cccc(C)c1NC(=O)C(=O)Cc1nc2ccccc2o1`: the TGI was greater than 100 µM.
The same measure, in the same setting: in the case of `O=C(O)[C@H](NS(=O)(=O)c1ccc2ccccc2c1)c1ccccc1` it was greater than 100 µM; in that of `O=C1c2ccccc2C2(O)c3cc4ccccc4cc3OC12O` (configuration not stated), greater than 100 µM.
On the same count and under the same terms, then `CN(C)c1c([O-])c(=[N+](C)C)c1=O`, with greater than 100 µM.
